Key:
[1] = Cmax in rat plasma at 5 mg/kg, po measured up to 24 hrs by LC-MS/MS analysis; assay type: ADME, organism-based
[2] = target: Proto-oncogene tyrosine-protein kinase receptor Ret (Homo sapiens, UniProt P07949, G691S); assay: Inhibition of human RET G691S mutant by biochemical kinase binding assay
MOLM-13 = assay: Antitumor activity against human MOLM-13 cells xenografted in NOD/SCID mouse model assessed as tumor growth inhibition at 0.5 mg/kg/day, po by caliper analysis relative to control; assay type: functional; settings: read-out: TGI
[3] = Tmax in NOD/SCID mouse plasma xenografted with human MV4-11 cells at […], po measured up to 24 hrs by LC-MS/MS analysis; assay type: ADME, organism-based; settings: dose 1.5 mg/kg
[4] = Cmax in NOD/SCID mouse tumor xenografted with human MV4-11 cells at 4.5 mg/kg, po measured up to 24 hrs by LC-MS/MS analysis; assay type: ADME, organism-based, Neoplasm
[5] = AUC (0 to t) in NOD/SCID mouse plasma xenografted with human MV4-11 cells at 4.5 mg/kg, po measured up to 24 hrs by LC-MS/MS analysis; assay type: ADME, organism-based
K562 = assay: cells; settings: Homo sapiens, K562, 72 h
Description: Antiproliferative activity against human K562 cells assessed as inhibition of cell growth incubated for 72 hrs by celltiter-glo luminescent cell viability assay

NCI-H460 = assay: cells; settings: Homo sapiens, NCI-H460, 72 h
Description: Antiproliferative activity against human NCI-H460 cells assessed as inhibition of cell growth incubated for 72 hrs by celltiter-glo luminescent cell viability assay

HCT-116 = assay: cells; settings: Homo sapiens, HCT-116, 72 h
Description: Antiproliferative activity against human HCT-116 cells assessed as inhibition of cell growth incubated for 72 hrs by celltiter-glo luminescent cell viability assay

Chain of Proto-oncogene tyrosine-protein kinase receptor Ret (P07949 29-1114 G691S limits assumed): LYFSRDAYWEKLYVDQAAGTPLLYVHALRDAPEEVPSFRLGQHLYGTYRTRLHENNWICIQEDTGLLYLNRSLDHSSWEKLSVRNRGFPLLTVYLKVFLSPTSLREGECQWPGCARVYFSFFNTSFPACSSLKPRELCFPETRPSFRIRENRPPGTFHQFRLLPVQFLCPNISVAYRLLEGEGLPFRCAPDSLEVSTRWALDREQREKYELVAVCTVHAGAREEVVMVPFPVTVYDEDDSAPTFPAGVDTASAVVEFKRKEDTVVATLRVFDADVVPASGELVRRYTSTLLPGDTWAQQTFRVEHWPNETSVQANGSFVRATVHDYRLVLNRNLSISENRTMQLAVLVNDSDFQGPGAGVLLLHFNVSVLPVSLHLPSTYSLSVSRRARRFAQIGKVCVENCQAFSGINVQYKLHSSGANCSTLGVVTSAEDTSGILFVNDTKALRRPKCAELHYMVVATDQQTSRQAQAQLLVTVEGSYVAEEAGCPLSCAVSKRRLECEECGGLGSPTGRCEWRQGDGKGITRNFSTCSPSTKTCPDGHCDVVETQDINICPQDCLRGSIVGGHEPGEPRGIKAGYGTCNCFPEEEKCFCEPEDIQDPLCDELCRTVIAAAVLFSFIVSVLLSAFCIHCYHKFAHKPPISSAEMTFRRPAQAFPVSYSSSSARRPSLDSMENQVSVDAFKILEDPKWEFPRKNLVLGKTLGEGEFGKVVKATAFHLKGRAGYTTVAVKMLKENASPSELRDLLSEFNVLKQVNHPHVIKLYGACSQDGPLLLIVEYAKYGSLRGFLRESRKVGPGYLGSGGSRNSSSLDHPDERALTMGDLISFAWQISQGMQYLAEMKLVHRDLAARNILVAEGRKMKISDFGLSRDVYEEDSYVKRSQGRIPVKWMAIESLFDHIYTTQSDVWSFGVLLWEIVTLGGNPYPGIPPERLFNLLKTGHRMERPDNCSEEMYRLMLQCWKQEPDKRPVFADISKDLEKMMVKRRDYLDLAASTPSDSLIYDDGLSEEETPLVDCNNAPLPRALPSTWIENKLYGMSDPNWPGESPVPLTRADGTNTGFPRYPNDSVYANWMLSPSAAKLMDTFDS

- Cmax [1]: 895 ng/mL
- IC50 [2]: 0.439 µM
- Tmax at 24 h [3]: 1 h
- Cmax [4]: 307 ng/mL
- AUC(0-t) at 24 h [5]: 908 ng·h/mL
- IC50 (K562): > 10 µM
- IC50 (NCI-H460): 7.8 µM
- IC50 (HCT-116): 8.5 µM
Structure (SMILES): CC(C)(C)c1cc(NC(=O)Nc2ccc(C#Cc3ccc(OCCCN4CCOCC4)cc3)cc2)no1
- inhibition in vivo at 0.5 mg/kg/day (MOLM-13): 39%

— ChEMBL document CHEMBL6134864, “Discovery of FLT3-ITD Inhibitor Clifutinib: A Novel Biphenylacetylene Urea Derivative in Clinical Trials for the Treatment of Relapsed/Refractory FLT3-ITD+ Acute Myeloid Leukemia” (J Med Chem, 2025)
